According to US20080226579A1, “Novel Resinate Complex of S-Clopidogrel and Production Method Thereof” (Chong Kun Dang Pharmaceutical Corp., priority 2005, published 2008):

Test: Heat stability test (stress storage at 80° C., clopidogrel content by HPLC)
Assay type: physicochemical
Conditions: tightly closed container at 80° C., day 3, content of clopidogrel by HPLC
Procedure: Each of the (+)-clopidogrel isomer-resinate complex, so obtained from Examples 1, 2 and 8, including a solid form of (+)-clopidogrel optical isomer-Amberlite complex and (+)-clopidogrel isomer (free base), so obtained from Comparative examples 1 and 2, were put into a tightly closed container at 80° C. to determine the contents of clopidogrel in the baseline, day 1 and day 3 by HPLC analysis in accordance with a content uniformity test of the U.S. Pharmacopoeia.
(HPLC Analysis) • Column: ULTRON ES-OVM chiral 5 ? , 4.6×250 mm • Mobile phase: 0.01 M potassium dihydrogen phosphate solution/acetonitrile 75:25 • Flow rate: 1 mL/min • Column temperature: Room temperature • Detector: Ultraviolet absorption spectrophotometer (detection wavelength: 220 nm) • Injection volume: 10 ?

decrease in content at day 3: 70%
SMILES: COC(=O)[C@H](c1ccccc1Cl)N1CCc2sccc2C1 [(+)-clopidogrel isomer (free base), methyl(+)-(S)-(2-chlorophenyl)(6,7-dihydro-4H-thieno[3,2-c]pyridine-5-yl)acetate]
